Laboratory results taken from patent publication US6617329B2, “Aminoquinazolines and their use as medicaments” (Boehringer Ingelheim Pharma KG, priority 2000, dated 2003).

Target: T1, human EGF-R (Homo sapiens, UniProt P00533)
T1 construct: expressed in transfected cells; host or cells: F/L-HERc cells (murine IL-3-dependent FDC-P1 line transduced with LXSN retroviral vector carrying human EGF-R cDNA; packaging line GP+E86)
Assay: Inhibition of EGF-dependent proliferation of F/L-HERc cells (Cell Titer 96 AQueous assay)
Format: cell-based
Settings: F/L-HERc cells (murine IL-3-dependent line expressing human EGF-R), stimulated with EGF 20 ng/ml, 48 hours at 37° C.
Text: A cell line of murine origin dependent on interleukin-3-(IL-3) which was genetically modified to express functional human EGF-R was used here. The proliferation of these cells known as F/L-HERc can therefore be stimulated either by murine IL-3 or by EGF (cf. von Rüden, T. et al. in EMBO J. 7, 2749-2756 (1988). and Pierce, J. H. et al. in Science 239, 628-631 (1988)).
The starting material used for the F/L-HERc cells was the cell line FDC-P1, the production of which has been described by Dexter, T. M. et al. in J. Exp. Med. 152, 1036-1047 (1980). Alternatively, however, other growth-factor-dependent cells may also be used (cf. for example Pierce, J. H. et al. in Science 239, 628-631 (1988), Shibuya, H. et al. in Cell 70, 57-67 (1992) and Alexander, W. S. et al. in EMBO J. 10, 3683-3691 (1991)). For expressing the human EGF-R cDNA (cf. Ullrich, A. et al. in Nature 309, 418-425 (1984)) recombinant retroviruses were used as described by von Rüden, T. et al., EMBO J. 7, 2749-2756 (1988), except that the retroviral vector LXSN (cf. Miller, A. D. et al. in BioTechniques 7, 980-990 (1989)) was used for the expression of the EGF-R cDNA and the line GP+E86 (cf. Markowitz, D. et al. in J. Virol. 62, 1120-1124 (1988)) was used as the packaging cell.
F/L-HERc cells were cultivated in RPMI/1640 medium (Bio Whittaker), supplemented with 10% foetal calf serum (FCS, Boehringer Mannheim), 2 mM glutamine (Bio Whittaker), standard antibiotics and 20 ng/ml of human EGF (Promega), at 37° C. and 5% CO2. In order to investigate the inhibitory activity of the compounds according to the invention, 1.5×10^4 cells per well were cultivated in triplicate in 96-well dishes in the above medium (200 μl), the cell proliferation being stimulated with either EGF (20 ng/ml) or murine IL-3. The IL-3 used was obtained from culture supernatants of the cell line X63/0 mIL-3 (cf. Karasuyama, H. et al. in Eur. J. Immunol. 18, 97-104 (1988)). The compounds according to the invention were dissolved in 100% dimethylsulphoxide (DMSO) and added to the cultures in various dilutions, the maximum DMSO concentration being 1%. The cultures were incubated for 48 hours at 37° C.
In order to determine the inhibitory activity of the compounds according to the invention the relative cell number was measured in O.D. units using the Cell Titer 96™ AQueous Non-Radioactive Cell Proliferation Assay (Promega). The relative cell number was calculated as a percentage of the control (F/LHERc cells without inhibitor) and the concentration of active substance which inhibits the proliferation of the cells by 50% (IC50) was derived therefrom.

T1 sequence (P00533 25-1210): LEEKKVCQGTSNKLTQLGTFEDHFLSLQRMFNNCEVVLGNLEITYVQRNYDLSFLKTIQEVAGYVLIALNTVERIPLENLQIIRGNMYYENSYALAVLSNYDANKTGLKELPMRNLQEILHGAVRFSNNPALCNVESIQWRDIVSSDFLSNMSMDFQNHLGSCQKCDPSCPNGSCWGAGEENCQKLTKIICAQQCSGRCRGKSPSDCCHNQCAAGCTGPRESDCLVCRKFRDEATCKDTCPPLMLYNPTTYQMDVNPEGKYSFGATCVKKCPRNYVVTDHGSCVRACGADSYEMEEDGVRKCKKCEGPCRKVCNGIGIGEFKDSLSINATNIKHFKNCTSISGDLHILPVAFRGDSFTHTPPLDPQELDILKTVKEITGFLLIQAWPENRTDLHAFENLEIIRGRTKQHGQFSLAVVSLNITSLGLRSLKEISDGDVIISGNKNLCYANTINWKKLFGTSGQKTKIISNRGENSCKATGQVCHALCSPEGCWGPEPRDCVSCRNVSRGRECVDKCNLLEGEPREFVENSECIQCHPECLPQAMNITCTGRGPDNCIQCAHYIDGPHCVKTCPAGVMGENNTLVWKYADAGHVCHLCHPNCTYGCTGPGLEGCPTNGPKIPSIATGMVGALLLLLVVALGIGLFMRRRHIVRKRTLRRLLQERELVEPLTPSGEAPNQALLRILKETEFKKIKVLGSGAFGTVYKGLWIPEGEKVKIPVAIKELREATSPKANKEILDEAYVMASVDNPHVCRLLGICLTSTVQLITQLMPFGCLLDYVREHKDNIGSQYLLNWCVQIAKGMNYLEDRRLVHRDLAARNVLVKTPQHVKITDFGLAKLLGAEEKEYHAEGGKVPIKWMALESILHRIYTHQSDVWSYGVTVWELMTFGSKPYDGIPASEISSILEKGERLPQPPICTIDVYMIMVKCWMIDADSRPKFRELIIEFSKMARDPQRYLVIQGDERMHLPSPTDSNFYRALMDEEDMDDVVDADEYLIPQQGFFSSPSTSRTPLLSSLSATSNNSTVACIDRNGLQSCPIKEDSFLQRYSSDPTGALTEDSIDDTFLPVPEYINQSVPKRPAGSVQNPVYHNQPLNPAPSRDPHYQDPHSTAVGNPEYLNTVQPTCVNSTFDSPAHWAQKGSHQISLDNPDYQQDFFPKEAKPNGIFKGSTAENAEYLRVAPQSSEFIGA

| IC50 [nM] | Compound |
| --- | --- |
| 67 | O=C1CC[C@H](CN2CCN(CCOc3cc4ncnc(Nc5ccc(F)c(Cl)c5)c4cc3OC3CCCC3)CC2)O1 [Example 4, 4-[(3-chloro-4-fluorophenyl)amino]-6-cyclopentyloxy-7-(2-{4-[(R)-(2-oxo-tetrahydrofuran-5-yl)methyl]-piperazin-1-yl}-ethoxy)-quinazoline] |
| 11 | O=C1CC(N2CCN(CCOc3cc4ncnc(Nc5ccc(F)c(Cl)c5)c4cc3OC3CCCC3)CC2)CO1 (stereo not shown) [3(1), 4-[(3-chloro-4-fluorophenyl)amino]-6-cyclopentyloxy-7-{2-[4-(2-oxo-tetrahydrofuran-4-yl)-piperazin-1-yl]-ethoxy}-quinazoline] |
| 4 | O=C1OCCC1N1CCN(CCOc2cc3ncnc(Nc4ccc(F)c(Cl)c4)c3cc2OC2CCCC2)CC1 (stereo not shown) [Example 1, 4-[(3-chloro-4-fluorophenyl)amino]-6-cyclopentyloxy-7-{2-[4-(2-oxo-tetrahydrofuran-3-yl)-piperazin-1-yl]-ethoxy}-quinazoline] |
| 62 | O=C1CC(N2CCN(CCOc3cc4ncnc(Nc5ccc(F)c(Cl)c5)c4cc3OCC3CCCC3)CC2)CO1 (stereo not shown) [Example 3, 4-[(3-chloro-4-fluorophenyl)amino]-6-cyclopentylmethoxy-7-{2-[4-(2-oxo-tetrahydrofuran-4-yl)-piperazin-1-yl]-ethoxy}-quinazoline] |
